# Tested on: Southern root-knot nematode (Meloidogyne incognita)
# Test: Test on the preventive effect against Southern root-knot nematode (garden balsam seedlings)
# Type: in vivo
# Settings: 504 h, test solution B 100 ppm, 1 ml per seedling to base of garden balsam seedlings, 3 weeks in greenhouse, read-out: efficacy (root knot damage degree relative to non-treated plot)
# Protocol: Compounds of the present invention were dissolved in dimethyl sulfoxide to prepare 1 wt % solutions. Then, distilled water was added to dilute the solutions to the prescribed concentration (100 ppm), and the obtained solutions were used in the following the Test Examples 9 to 12. 1 ml per seedling of test solution B of the compounds of the present invention was treated to the bases of garden balsam seedlings (about 2 weeks after budding) planted in a cell tray of which each cell was filled with 10 g of soil. 1 hour after the application, 1 ml per cell of water containing Southern root-knot nematode (Meloidogyne incognita) 2 L larvae (100 larvae of 2 L/1 ml) was applied to the base. The tray was placed in a greenhouse for 3 weeks, and the degree of root knot on the root was determined in accordance with the following damage index and the damage degree to calculate the efficacy (%) relative to the non-treated plot in accordance with the following formula. • 0: No knot formation was observed. • 1: Knot formations were observed on parts of the root system. • 2: Knot formations were observed on the entire root system. • 3: Large knot formations were observed. • 4: Large knot formations were observed on the entire root system. [Damage degree]=[Σ(damage index×number of each damaged indexed seedling)/(4×number of seedlings investigated)]×100 Efficacy (%)=[1−(damage degree in treated plot/damage degree in non-treated plot)]×100
row,SMILES,pest or weed control at 100 µg/mL
1,"CC(C)(C)C#Cc1cnc(CCNC(=O)c2ccccc2C(F)(F)F)c(Cl)c1 [1-003, N-[2-[3-chloro-5-(3,3-dimethyl-1-butynyl)pyridin-2-yl]ethyl]-2-(trifluoromethyl)benzamide]",≥ 50%
2,O=C(NCC(F)(F)c1ncc(C#CC2CC2)cc1Cl)c1ccccc1C(F)(F)F [1-005],≥ 50%
3,"CC(CNC(=O)c1ccccc1C(F)(F)F)c1ncc(C#CC2CC2)cc1Cl (stereo not shown) [1-007, N-[2-[3-chloro-5-(cyclopropylethynyl)pyridin-2-yl]propyl]-2-(trifluoromethyl)benzamide]",≥ 50%
4,O=C(NCC(c1ncc(C#CC2CC2)cc1Cl)C1CC1)c1ccccc1C(F)(F)F (stereo not shown) [1-009],≥ 50%
5,"C=C(CNC(=O)c1ccccc1C(F)(F)F)c1ncc(C#CC)cc1Cl [1-012, N-[2-[3-chloro-5-(1-propynyl)pyridin-2-yl]-2-propenyl]-2-(trifluoromethyl)benzamide]",≥ 50%
6,COC(c1ncc(C#CC2CC2)cc1Cl)C(C)NC(=O)c1ccccc1C(F)(F)F (stereo not shown) [1-024],≥ 50%
7,COC(c1ncc(C#CC(C)(C)C)cc1Cl)C(C)NC(=O)c1ccccc1C(F)(F)F (stereo not shown) [1-025],≥ 50%
8,"O=C(NCCc1ncc(C#CC2CC2)cc1Cl)c1cccnc1C(F)F [3-001, N-[2-[3-chloro-5-(cyclopropylethynyl)pyridin-2-yl]ethyl]-2-(difluoromethyl)nicotinamide]",≥ 50%
9,CC(C)(C)C#Cc1cnc(CCNC(=O)c2cccnc2C(F)F)c(Cl)c1 [3-002],≥ 50%
10,"O=C(NCC(F)(F)c1ncc(C#CC2CC2)cc1Cl)c1cccnc1C(F)F [3-003, N-[2-[3-chloro-5-(cyclopropylethynyl)pyridin-2-yl]-2,2-difluoroethyl]-2-(difluoromethyl)nicotinamide]",≥ 50%
11,CC(CNC(=O)c1cccnc1Cl)c1ncc(C#CC2CC2)cc1Cl (stereo not shown) [3-005],≥ 50%
12,CC(CNC(=O)c1cccnc1C(F)F)c1ncc(C#CC2CC2)cc1Cl (stereo not shown) [3-006],≥ 50%
13,O=C(NCC(c1ncc(C#CC2CC2)cc1Cl)C1CC1)c1cccnc1C(F)F (stereo not shown) [3-008],≥ 50%
14,CSC(CNC(=O)c1cccnc1C(F)F)c1ncc(C#CC2CC2)cc1Cl (stereo not shown) [3-020],≥ 50%
15,COC(c1ncc(C#CC2CC2)cc1Cl)C(C)NC(=O)c1cccnc1C(F)F (stereo not shown) [3-021],≥ 50%
16,Cn1cc(C(=O)NCCc2ncc(C#CC3CC3)cc2Cl)c(C(F)F)n1 [8-001],≥ 50%
17,Cn1cc(C(=O)NCCc2ncc(C#CC(C)(C)C)cc2Cl)c(C(F)F)n1 [8-002],≥ 50%
18,CC(CNC(=O)c1cn(C)nc1C(F)F)c1ncc(C#CC2CC2)cc1Cl (stereo not shown) [8-007],≥ 50%
19,Cn1cc(C(=O)NCC(c2ncc(C#CC3CC3)cc2Cl)C2CC2)c(C(F)F)n1 (stereo not shown) [8-009],≥ 50%
20,COC(CNC(=O)c1cn(C)nc1C(F)F)c1ncc(C#CC2CC2)cc1Cl (stereo not shown) [8-019],≥ 50%
21,"COC(c1ncc(C#CC2CC2)cc1Cl)C(C)NC(=O)c1cn(C)nc1C(F)F (stereo not shown) [8-028, N-[2-[3-chloro-5-(cyclopropylethynyl)pyridin-2-yl]-2-methoxy-1-methylethyl]-3-difluoromethyl-1-methyl-1H-pyrazole-4-carboxamide]",≥ 50%
22,COC(c1ncc(C#CC2CC2)cc1Cl)C(C)NC(=O)c1sc(C)nc1C(F)F (stereo not shown) [9-006a],≥ 50%
